pEC50: −log10 of the molar value. Like-named read-outs stand apart in the source and are kept apart here.
Legend:
Format in all cases: cell-based
[1] = molecular target: T1, PPARγ (Homo sapiens, UniProt P37231); test: cell-based; details: PPAR-GAL4 chimeric receptors, transiently transfected CHO-K1 cells, ia = inactive at 10 μM; for pEC50: read-out: Transactivation activity EC50 PPARγ
T1 sequence (P37231 232-505 limits assumed): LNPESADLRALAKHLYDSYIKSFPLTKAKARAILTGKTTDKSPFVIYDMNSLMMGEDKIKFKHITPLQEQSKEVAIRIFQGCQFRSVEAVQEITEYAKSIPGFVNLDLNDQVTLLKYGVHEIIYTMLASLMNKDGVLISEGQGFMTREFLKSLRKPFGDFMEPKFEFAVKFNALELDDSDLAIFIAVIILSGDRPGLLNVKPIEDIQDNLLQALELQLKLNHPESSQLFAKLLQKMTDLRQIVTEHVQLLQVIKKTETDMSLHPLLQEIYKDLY

[2] = molecular target: T2, PPARδ (Homo sapiens, UniProt Q03181); test: cell-based; details: PPAR-GAL4 chimeric receptors, transiently transfected CHO-K1 cells, ia = inactive at 10 μM; for pEC50: read-out: Transactivation activity EC50 PPARδ
T2 sequence (Q03181 211-441 limits assumed): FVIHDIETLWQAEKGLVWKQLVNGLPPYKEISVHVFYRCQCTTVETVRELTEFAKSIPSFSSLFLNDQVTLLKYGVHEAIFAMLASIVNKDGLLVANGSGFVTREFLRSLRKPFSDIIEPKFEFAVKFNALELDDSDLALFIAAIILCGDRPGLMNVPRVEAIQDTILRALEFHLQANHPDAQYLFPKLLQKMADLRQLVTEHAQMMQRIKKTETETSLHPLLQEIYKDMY

[3] = molecular target: T3, PPARα (Homo sapiens, UniProt Q07869); test: PPARα-GAL4 chimeric receptor transactivation in CHO-K1 cells; details: for pEC50: read-out: Transactivation activity EC50 PPARα
T3 sequence (Q07869 200-468 limits assumed): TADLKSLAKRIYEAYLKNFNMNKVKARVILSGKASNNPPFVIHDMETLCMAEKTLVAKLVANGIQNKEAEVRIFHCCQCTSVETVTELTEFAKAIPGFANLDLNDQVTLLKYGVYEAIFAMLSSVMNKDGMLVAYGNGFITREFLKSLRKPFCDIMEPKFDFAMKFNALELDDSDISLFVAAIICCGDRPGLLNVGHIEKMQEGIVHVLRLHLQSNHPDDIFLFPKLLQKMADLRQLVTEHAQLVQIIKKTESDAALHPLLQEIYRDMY

[4] = PPAR-GAL4 chimeric receptors, transiently transfected CHO-K1 cells, ia = inactive at 10 μM

| Transactivation activity EC50 PPARα [3, 4] | SMILES | Transactivation activity EC50 PPARγ [1] | Transactivation activity EC50 PPARδ [2] | pEC50 [3, 4] | pEC50 [2] | pEC50 [1] | pEC50 [3] |
| --- | --- | --- | --- | --- | --- | --- | --- |
| ia^(b) | COc1ccc(C(=O)O)cc1C(=O)NCc1ccc(C(F)(F)F)cc1 [Compound 7] | ia | ia | – | – | – | – |
| ia | COc1ccc(CC(=O)O)cc1C(=O)NCc1ccc(C(F)(F)F)cc1 [Compound 8] | ia | ia | – | – | – | – |
| – | COc1ccc(CCC(=O)O)cc1C(=O)NCc1ccc(C(F)(F)F)cc1 [Compound 9] | ia | ia | 5.89 | – | – | – |
| – | COc1ccc(CC(C)C(=O)O)cc1C(=O)NCc1ccc(C(F)(F)F)cc1 (stereo not drawn) [Compound 10] | ia | – | 6.62 | 5.55 | – | – |
| – | CCC(Cc1ccc(OC)c(C(=O)NCc2ccc(C(F)(F)F)cc2)c1)C(=O)O (stereo not drawn) [Compound 11] | – | – | 7.40 | 5.44 | – | – |
| – | CCCC(Cc1ccc(OC)c(C(=O)NCc2ccc(C(F)(F)F)cc2)c1)C(=O)O (stereo not drawn) [Compound 12] | ia | – | 6.44 | 5.62 | – | – |
| – | COc1ccc(CC(C(=O)O)C(C)C)cc1C(=O)NCc1ccc(C(F)(F)F)cc1 (stereo not drawn) [Compound 13] | ia | ia | 6.54 | – | – | – |
| – | CCCCC(Cc1ccc(OC)c(C(=O)NCc2ccc(C(F)(F)F)cc2)c1)C(=O)O (stereo not drawn) [Compound 14] | – | ia | 6.00 | – | 5.60 | – |
| ia | COc1ccc(CC(C(=O)O)c2ccccc2)cc1C(=O)NCc1ccc(C(F)(F)F)cc1 (stereo not drawn) [Compound 15] | ia | ia | – | – | – | – |
| – | COc1ccc(CC(OC)C(=O)O)cc1C(=O)NCc1ccc(C(F)(F)F)cc1 (stereo not drawn) [Compound 16] | ia | ia | 6.64 | – | – | – |
| – | CCOC(Cc1ccc(OC)c(C(=O)NCc2ccc(C(F)(F)F)cc2)c1)C(=O)O (stereo not drawn) [Compound 17] | – | – | 5.80 | 5.52 | 5.55 | – |
| ia | COc1ccc(CC(Oc2ccccc2)C(=O)O)cc1C(=O)NCc1ccc(C(F)(F)F)cc1 (stereo not drawn) [Compound 18] | ia | ia | – | – | – | – |
| – | COc1ccc(CC(C)(C)C(=O)O)cc1C(=O)NCc1ccc(C(F)(F)F)cc1 [Compound 19] | ia | ia | 5.54 | – | – | – |
| – | CCC(CC)(Cc1ccc(OC)c(C(=O)NCc2ccc(C(F)(F)F)cc2)c1)C(=O)O [Compound 20] | ia | ia | 5.55 | – | – | – |
| ia | COc1ccc(CC(Sc2ccccc2)C(=O)O)cc1C(=O)NCc1ccc(C(F)(F)F)cc1 (stereo not drawn) [Compound 22] | ia | ia | – | – | – | – |
| ia | COc1ccc(CC(SCc2ccccc2)C(=O)O)cc1C(=O)NCc1ccc(C(F)(F)F)cc1 (stereo not drawn) [Compound 23] | ia | ia | – | – | – | – |
| – | CCC(Cc1ccc(OC)c(C(=O)Nc2ccc(C(F)(F)F)cc2)c1)C(=O)O (stereo not drawn) [Compound 24] | ia | ia^(b) | – | – | – | 5.22 |
| – | CCC(Cc1ccc(OC)c(C(=O)NCCc2ccc(C(F)(F)F)cc2)c1)C(=O)O (stereo not drawn) [Compound 25] | ia | – | – | 5.82 | – | 6.13 |
| ia | CCC(Cc1ccc(OC)c(C(=O)N(C)Cc2ccc(C(F)(F)F)cc2)c1)C(=O)O (stereo not drawn) [Compound 26] | ia | ia | – | – | – | – |
| – | COc1ccc(CC2SC(=O)NC2=O)cc1C(=O)NCc1ccc(C(F)(F)F)cc1 (stereo not drawn) [KRP-297, reference compound] | – | ia | – | – | – | – |
